In ChEMBL document CHEMBL3044555, “Metabolism of thymol and trans-anethole in larvae of Spodoptera litura and Trichoplusia ni (Lepidoptera: Noctuidae)” (J Agric Food Chem, 2004):

Legend:
[1] = Drug excretion in 80 last instar Trichoplusia ni (cabbage looper) larvae feces assessed as unchanged parent compound at 0.1 % fwt, po measured after 3 days by 1H/13C NMR analysis; format: ADME, organism-based; details: in vivo, 72 h
[2] = Drug excretion in 80 last instar Spodoptera litura larvae feces assessed as side chain methyl group hydroxylated compound on at 0.1 % fwt, po by TLC analysis; format: ADME, organism-based; details: in vivo
[3] = Drug excretion in 80 last instar Trichoplusia ni (cabbage looper) larvae feces assessed as side chain methyl group hydroxylated compound on at 0.1 % fwt, po by 1H/13C NMR analysis; format: ADME, organism-based; details: in vivo
[4] = Drug excretion in 80 last instar Trichoplusia ni (cabbage looper) larvae feces assessed as side chain methyl group hydroxylated compound on at 0.1 % fwt, po by TLC analysis; format: ADME, organism-based; details: in vivo
[5] = Drug excretion in 30 last instar Trichoplusia ni (cabbage looper) larvae feces assessed as thymol 3-O-beta-glucoside at 100 ug administered topically on abdominal terga by TLC analysis; format: ADME; details: in vivo, topical_or_ocular
[6] = Drug excretion in 80 last instar Spodoptera litura larvae feces assessed as thymol 3-O-beta-glucoside at 0.1 % fwt, po measured after 3 days by 1H/13C NMR analysis; format: ADME, organism-based; details: in vivo, 72 h
[7] = Drug excretion in 80 last instar Trichoplusia ni (cabbage looper) larvae feces assessed as thymol 3-O-beta-glucoside at 0.1 % fwt, po measured after 3 days by 1H/13C NMR analysis; format: ADME, organism-based; details: in vivo, 72 h
[8] = Drug excretion in 80 last instar Spodoptera litura larvae feces assessed as unchanged parent compound at 0.1 % fwt, po measured after 3 days by 1H/13C analysis; format: ADME, organism-based; details: in vivo, 72 h
[9] = Drug excretion in 80 last instar Spodoptera litura larvae feces assessed as thymol 3-O-beta-glucoside at 0.1 % fwt, po measured after 3 days by TLC analysis; format: ADME, organism-based; details: in vivo, 72 h
[10] = Drug excretion in 80 last instar Trichoplusia ni (cabbage looper) larvae feces assessed as thymol 3-O-beta-glucoside at 0.1 % fwt, po measured after 3 days by TLC analysis; format: ADME, organism-based; details: in vivo, 72 h

Compound | Drug excretion [1] | Drug excretion [2] [mg] | Drug excretion [3] | Drug excretion [4] [mg] | Drug excretion [5] | Drug excretion [6] | Drug excretion [7] | Drug excretion [8] | Drug excretion [9] [mg] | Drug excretion [10] [mg]
C/C=C/c1ccc(OC)cc1 [ANETHOLE] | Not Active | 5.8 | Active | 5.8 |  |  |  |  |  | 
Cc1ccc(C(C)C)c(O)c1 [THYMOL] | Active |  |  |  | Active | Active | Active | Active | 3.2 | 3.2
